Measured values published in patent US5556886A, “HIV-inhibiting benzeneacetamide derivatives” (Janssen Pharmaceutica N.V., priority 1990, dated 1996).
≈ marks a conversion by molar mass, not a printed value.

Key:
HIV-1 = experiment: in-vitro anti-HIV assay: inhibition of HIV-induced cytopathic effect in MT-4 cells (MTT); format: cell-based; conditions: for SI (selectivity index, ratio of CD50 to ED50): CD50/ED50, MT-4 cells; for EC50: Human immunodeficiency virus 1, MT4, HIV-infected MT-4 cells, cytopathic effect, MTT, 540 nm, read-out: ED50 (dose achieving 50% protection)
Procedure: (§1) A rapid, sensitive and automated assay procedure was used for the in-vitro evaluation of anti-HIV agents. An […] T4-cell line, MT-4, which was previously shown (Koyanagi et al., Int. J. Cancer, 36, 445-451, 1985) to be highly susceptible to and permissive for HIV infection, served as the target cell line. Inhibition of the HIV-induced cytopathic effect was used as the end point. The viability of both HIV-and mock-infected cells was assessed spectrophotometrically via the in-situ reduction of 3-(4,5-dimethylthiazol-2-yl)-2,5-diphenyltetrazolium bromide (MTT). The 50% cytotoxic dose (CD50 in μg/ml) was defined as the concentration of compound that reduced the absorbance of the mock-infectedcontrol sample by 50%. The percent protection achieved by the compound in HIV-infected cells was calculated by the following formula: [formula] whereby (ODT)HIV is the optical density measured with a given concentration of the test compound in HIV-infected cells; (ODC)HIV is the optical density measured for the control untreated HIV-infected cells; (ODC)MOCK is the optical density measured for the control untreated mock-infected cells; all optical density values were determined at 540 nm. The dose achieving 50% protection according to the above formula was defined as the 50% effective dose (ED50 in μg/ml). The ratio of CD50 to ED50 was defined as the selectivity index (SI).

in vitro = format: cell-based; conditions: human, mt-4 cells
Procedure: as §1

In the case of NC(=O)C(Nc1ccccc1[N+](=O)[O-])c1c(Cl)cccc1Cl (stereo not drawn) [Compound 15, 2-(2,6-dichlorophenyl)-2-[(2-nitrophenyl)amino]acetamide], the “SI (selectivity index, ratio of CD50 to ED50)” value (HIV-1) is reported as ~ 1000, the EC50 (HIV-1) is reported as 0.02 µg/mL (≈ 0.0588 µM) and the CC50 (in vitro) is reported as 20 µg/mL (≈ 58.8 µM).

In the case of CC(=O)c1ccccc1NC(C(N)=O)c1c(Cl)cccc1Cl (single isomer, unassigned) [Compound 23, (-)-α-[(2-acetylphenyl)amino]-2,6-dichlorobenzeneacetamide], the “SI (selectivity index, ratio of CD50 to ED50)” value (HIV-1) is reported as ~ 3000, the EC50 (HIV-1) is reported as 0.0066 µg/mL (≈ 0.0196 µM) and the CC50 (in vitro) is reported as 20 µg/mL (≈ 59.3 µM).

For NC(=O)C(Nc1ccccc1[N+](=O)[O-])c1c(Cl)cccc1Cl (single isomer, unassigned; (-)) [Compound 25, (-)-2,6-dichloro-α-[(2-nitrophenyl)amino]benzeneacetamide], the “SI (selectivity index, ratio of CD50 to ED50)” value (HIV-1) was ~ 1600, the EC50 (HIV-1) was 0.018 µg/mL (≈ 0.0529 µM) and the CC50 (in vitro) was 29 µg/mL (≈ 85.3 µM).

With CC(=O)c1ccc(Cl)cc1NC(C(N)=O)c1c(Cl)cccc1Cl (stereo not drawn) [Compound 30, α-[(2-acetyl-5-chlorophenyl)amino]-2,6-dichlorobenzeneacetamide] the “SI (selectivity index, ratio of CD50 to ED50)” value (HIV-1) was ~ 18000, the EC50 (HIV-1) was 0.011 µg/mL (≈ 0.0296 µM) and the CC50 (in vitro) was 200 µg/mL (≈ 538 µM).

In the case of Cc1cc(NC(C(N)=O)c2c(Cl)ccc(Cl)c2Cl)c([N+](=O)[O-])cc1C (stereo not drawn) [Compound 28], the “SI (selectivity index, ratio of CD50 to ED50)” value (HIV-1) is reported as ~ 140, the EC50 (HIV-1) is reported as 0.07 µg/mL (≈ 0.174 µM) and the CC50 (in vitro) is reported as 10 µg/mL (≈ 24.8 µM).

For Cc1cc(NC(C(N)=O)c2c(Cl)cccc2Cl)c([N+](=O)[O-])cc1C (stereo not drawn) [Compound 24], the “SI (selectivity index, ratio of CD50 to ED50)” value (HIV-1) was ~ 2100, the EC50 (HIV-1) was 0.077 µg/mL (≈ 0.209 µM) and the CC50 (in vitro) was 160 µg/mL (≈ 435 µM).

For Cc1cc(C)c([N+](=O)[O-])c(NC(C(N)=O)c2c(Cl)cccc2Cl)c1 (stereo not drawn) [Compound 27], the “SI (selectivity index, ratio of CD50 to ED50)” value (HIV-1) was ~ 100, the EC50 (HIV-1) was 0.049 µg/mL (≈ 0.133 µM) and the CC50 (in vitro) was 5 µg/mL (≈ 13.6 µM).

For Cc1ccc([N+](=O)[O-])c(NC(C(N)=O)c2c(Cl)cccc2Cl)c1 (single isomer, unassigned) [Compound 29, (-)-α-[(5-methyl-2-nitrophenyl)amino]-2,6-dichlorobenzeneacetamide], the “SI (selectivity index, ratio of CD50 to ED50)” value (HIV-1) was ~ 1550, the EC50 (HIV-1) was 0.0032 µg/mL (≈ 0.00903 µM) and the CC50 (in vitro) was 5 µg/mL (≈ 14.1 µM).

In the case of Cc1ccc([N+](=O)[O-])c(NC(C(N)=O)c2c(Cl)cccc2Cl)c1 (stereo not drawn) [Compound 26], the “SI (selectivity index, ratio of CD50 to ED50)” value (HIV-1) is reported as no less than 4400, the EC50 (HIV-1) is reported as 0.057 µg/mL (≈ 0.161 µM) and the CC50 (in vitro) is reported as greater than 250 µg/mL.

With CC(=O)c1ccccc1NC(C(N)=O)c1c(Cl)cccc1Cl (racemic) [Compound 22, (±)-α[(2-acetylphenyl)amino]-2,6-dichlorobenzeneacetamide] the “SI (selectivity index, ratio of CD50 to ED50)” value (HIV-1) was ~ 2700, the EC50 (HIV-1) was 0.013 µg/mL (≈ 0.0386 µM) and the CC50 (in vitro) was 35 µg/mL (≈ 104 µM).
